Results: PubChem BioAssay (NCI)
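Method: 48-hour compound exposure of cells in 96-well plates, five concentrations, linear interpolation of endpoints. At the GI50, growth is halved. The concentration for full growth arrest is given as TGI.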

Experiments:
Assay in all cases: NCI tumour cell line growth inhibition, 48 h
786-0 renal = system: 786-0 renal
A498 renal = system: A498 renal
A549 NSCLC = system: A549 NSCLC
ACHN renal = system: ACHN renal
BT-549 breast = system: BT-549 breast
CAKI-1 renal = system: CAKI-1 renal
CCRF-CEM leukemia = system: CCRF-CEM leukemia
COLO 205 colon = system: COLO 205 colon
DU-145 prostate = system: DU-145 prostate
EKVX NSCLC = system: EKVX NSCLC
HCC-2998 colon = system: HCC-2998 colon
HCT-116 colon = system: HCT-116 colon
HCT-15 colon = system: HCT-15 colon
HL-60(TB) leukemia = system: HL-60(TB) leukemia
HOP-62 NSCLC = system: HOP-62 NSCLC
HS 578T breast = system: HS 578T breast
HT29 colon = system: HT29 colon
IGROV1 ovarian = system: IGROV1 ovarian
K-562 leukemia = system: K-562 leukemia
KM12 colon = system: KM12 colon
LOX IMVI melanoma = system: LOX IMVI melanoma
M14 melanoma = system: M14 melanoma
MALME-3M melanoma = system: MALME-3M melanoma
MCF7 breast = system: MCF7 breast
MDA-MB-231 breast = system: MDA-MB-231 breast
MOLT-4 leukemia = system: MOLT-4 leukemia
NCI-H226 lung = system: NCI-H226 lung
NCI-H23 lung = system: NCI-H23 lung

COc1ccc2c(c1)[nH]c(=O)c1c3cccnc3cn21
GI50 (786-0 renal): 66 nM
TGI (786-0 renal): 15800 nM
GI50 (A498 renal): 33.5 nM
TGI (A498 renal): 4530 nM
GI50 (A549 NSCLC): 47.9 nM
TGI (A549 NSCLC): 24400 nM
GI50 (ACHN renal): 82 nM
TGI (ACHN renal): 13000 nM
GI50 (BT-549 breast): 356 nM
TGI (BT-549 breast): 25300 nM
GI50 (CAKI-1 renal): 40.5 nM
TGI (CAKI-1 renal): 14700 nM
GI50 (CCRF-CEM leukemia): 43.7 nM
TGI (CCRF-CEM leukemia): > 100000 nM
GI50 (COLO 205 colon): 35.9 nM
TGI (COLO 205 colon): 146 nM
GI50 (DU-145 prostate): 36.5 nM
TGI (DU-145 prostate): > 100000 nM
GI50 (EKVX NSCLC): 1120 nM
TGI (EKVX NSCLC): > 94500 nM
GI50 (HCC-2998 colon): 74.4 nM
TGI (HCC-2998 colon): 17700 nM
GI50 (HCT-116 colon): 49.6 nM
TGI (HCT-116 colon): 14300 nM
GI50 (HCT-15 colon): 43 nM
TGI (HCT-15 colon): 29300 nM
GI50 (HL-60(TB) leukemia): 26.2 nM
TGI (HL-60(TB) leukemia): 1210 nM
GI50 (HOP-62 NSCLC): 66.6 nM
TGI (HOP-62 NSCLC): 37000 nM
GI50 (HS 578T breast): 38.4 nM
TGI (HS 578T breast): > 48800 nM
GI50 (HT29 colon): 30 nM
TGI (HT29 colon): 168 nM
GI50 (IGROV1 ovarian): 62.7 nM
TGI (IGROV1 ovarian): 14600 nM
GI50 (K-562 leukemia): 27.1 nM
TGI (K-562 leukemia): 19800 nM
GI50 (KM12 colon): 37.7 nM
TGI (KM12 colon): 17500 nM
GI50 (LOX IMVI melanoma): 67.9 nM
TGI (LOX IMVI melanoma): 14000 nM
GI50 (M14 melanoma): 26.5 nM
TGI (M14 melanoma): 19900 nM
GI50 (MALME-3M melanoma): 43.7 nM
TGI (MALME-3M melanoma): 18300 nM
GI50 (MCF7 breast): 96.5 nM
TGI (MCF7 breast): 14100 nM
GI50 (MDA-MB-231 breast): 299 nM
TGI (MDA-MB-231 breast): 25400 nM
GI50 (MOLT-4 leukemia): 67.5 nM
TGI (MOLT-4 leukemia): > 100000 nM
GI50 (NCI-H226 lung): 40.9 nM
TGI (NCI-H226 lung): 18600 nM
GI50 (NCI-H23 lung): 131 nM
